For one assay, the system named is tyrosinase. In words: Aurone synthesis activity of tyrosinase. The format is biochemical, Neurospora. The note with it: HPLC. The protocol: After mixing tyrosinase (Sigma catalog no. T7755; 0.04 mg/ml, 10 μl), 0.1 M sodium phosphate buffer (pH 6.5, 335 μl), 9% CHAPS (20 μl) and milli-Q water (20 μl), the mixture was incubated for 10 minutes at 30° C., followed by the addition of tetrahydroxychalcone (THC, 4.3 mM in ethanol, 15 μl), stirring immediately and reacting for 30 minutes at 30° C. After reaction, 100 μl of reaction stopping solution (10% trifluoroacetate solution containing 90% acetonitrile) was added to the reaction mixture to stop the reaction, followed by HPLC analysis. Analysis was performed in the same manner as described in Example 3. Water was used instead of tyrosinase as a control.
In addition, the reaction was carried out under the same conditions using pentahydroxychalcone (PHC) instead of THC as a substrate, and using 0.116 M sodium citrate phosphate buffer (pH 5.4) as a buffer. Similarly, water was used instead of tyrosinase as a control.

For a further assay, the system named is aurone synthase. In words: Measurement of aurone synthase activity (HPLC). The format is biochemical, snapdragon. The note with it: for Conversion of substrate to aureusidin by purified aurone synthase: product confirmed by HPLC analysis. The protocol: The reaction was started by adding 5 μl of THC, having an absorbance of 462 at 366 nm in ethanol, to 50 μl of 1 M sodium acetate buffer (pH 5.0) and 350 μl of crude enzyme solution diluted with water. After allowing to react for 1 hour at 30° C., and adding 100 μl of an aqueous solution of 90% (v/v) acetonitrile containing 1% (v/v) TFA to stop the reaction, activity was measured by HPLC. The crude enzyme solution in each purification step described later in Example 4 was measured.
The YMC J'Sphere ODS M80 column (4.6×150 mm) was used and the flow rate was set at 0.7 ml/min. Using a 0.1% aqueous solution of TFA as solvent A, and a 90% aqueous solution of acetonitrile containing 0.1% TFA as solvent B, a sample was injected into the column, after which the ratio of A:B was held at 7:3 for first 3 minutes, and then changed to 6:4 by a linear concentration gradient for next 10 minutes. This concentration was maintained for 5 minutes. After changing the ratio of A:B to 7:3 for next one minute, this concentration was maintained for 5 minutes.

In the case of `O=C(/C=C/c1ccc(O)cc1)c1c(O)cc(O)cc1O` [THC, tetrahydroxychalcone], the “Reaction product formed from substrate by tyrosinase” value in the assay with tyrosinase (0.1 M sodium phosphate buffer pH 6.5, 30 minutes at 30° C.) is “reaction product aureusidin”. Also, the “Conversion of substrate to aureusidin by purified aurone synthase” value in the assay on aurone synthase is “converts both THC and pentahydroxychalcone to aureusidin”.
For `OO` [hydrogen peroxide], the “Change of enzyme activity on addition” value with aurone synthase (hydrogen peroxide added) is listed as “activity increased somewhat”.
For `O=C(/C=C/c1ccc(O)c(O)c1)c1c(O)cc(O)cc1O` [pentahydroxychalcone], in the assay with tyrosinase (0.116 M sodium citrate phosphate buffer pH 5.4, 30 minutes at 30° C.), the “Reaction product formed from substrate by tyrosinase” value is “reaction product aureusidin”. Besides, the “Conversion of substrate to aureusidin by purified aurone synthase” value in the assay on aurone synthase was “converts both THC and pentahydroxychalcone to aureusidin”.

The record behind these values is patent publication US7592436B2, “Gene encoding a protein having aurone synthesis activity” (International Flower Developments Proprietary Limited, priority 1998, dated 2009).
